From PubChem BioAssay AID1963450 (Molecular Pharmacology Branch, DTP, NCI, 2024) come the findings set out here.

The structures appear in SMILES notation. “And” between values parts separate entries of the source, which are not always exact repeats. Equal values may be shown once. Where only a bound is given, the exact number is not on record here.

The test deals with 556581-035-R-J1-PDC complex spheroid growth. Briefly: Anticancer human tumor 556581-035-R-J1-PDC patient-derived ovarian carcinoma cell line growth inhibition [Asc]. The settings on record: for viability, T/C: stronger effect = lower value. On the procedure: Multicellular complex tumor spheroid response to apoptosis pathway targeting inhibitors Alrizomadlin, Pelcitoclax, and Dasminapant in combination with a variety of drugs and investigational agents in selected tumor cell lines
The MDM2 inhibitor alrizomadlin, the Bcl-2/Bcl-xL inhibitor pelcitoclax, and the IAPs inhibitor dasminapant were evaluated both individually and in combination with standard of care and investigational anticancer small molecules within a complex spheroid model of solid tumors. . Complex spheroids include a stromal component modeled by human endothelial cells (HUVEC) and fibroblasts modeled by human mesenchymal stem cells (MSCs). The concentration ranges selected for each drug and investigational agent were based upon clinically achievable concentrations if the clinical Cmax of the agent was known.
Compounds. The drugs and investigational agents: alrizomadlin (APG-115; NSC831270), pelcitoclax (APG-1252; NSC835773), dasminapant (APG-1387;NSC834197), TAK-243 (NSC785004), copanlisib (NSC809693), olaparib (NSC753686), talazoparib (NSC767125), cobimetinib (NSC 768068), eltanexor (KPT-8602, NSC 794443), abemaciclib (NSC 768073), sotorasib (NSC818433), adagrasib (NSC 831453), MRTX-1133 (NSC 836407), Iadademestat (ORY1001, NSC 806812), and RMC-4630 (NSC839698), were obtained from the NCI Developmental Therapeutics Program Chemical Repository. The FDA-approved anticancer drug set is available from the Developmental Therapeutics Program at https://dtp.cancer.gov/organization/dscb/obtaining/available plates.htm. […] The stock solutions were prepared in dimethyl sulfoxide (DMSO, Sigma-Aldrich, St. Louis, MO, cat. D2650) at 800-fold the tested concentration and stored at -70 degrees C prior to their use. All drugs and investigational agents were tested over a range starting from a high concentration at or near the clinical Cmax and decreasing in half-log increments. If the clinical Cmax for an agent had not been determined, the highest concentration tested was 10 microM.
The patient-derived cancer (PDC) cell lines include five colon adenocarcinomas: 186277-243-T-J2-PDC, 616215-338-R-J1-PDC, 439559-082-T-J2-PDC, 463943-066-T-J2-PDC, and 519858-162-T-J1-PDC; three pancreatic carcinomas: 323965-272-R-J2-PDC, 521955-158-R6-J3-PDC, and 521955-158-R2-J5-PDC; two uterine sarcomas: 327498-152-R-J2-PDC and 993429-296-R-J1-PDC; two rhabdomyosarcomas: 755483-174-R-J1-PDC and 772245-204-R-J1-PDC; two soft tissue sarcomas: 126254-015-R-J1-PDC and 494315-158-R-J1-PDC; two malignant fibrous histiocytomas: 317291-083-R-J1-PDC and 596521-263-R-J1-PDC; two breast carcinomas: 171881-019-R-J1-PDC and 885512-296-R-J2-PDC; and one ovarian carcinoma: 6556581-035-R-J-PDC were obtained from the NCI PDMR, (https://pdmr.cancer.gov). The established cell lines HSSY-2 synovial sarcoma (RRID:CVCL 8719), SYO-1 synovial sarcoma (RRID:CVCL_7146), MPNST malignant peripheral neural sheath tumor were obtained from the Sloan Kettering Institute. The following established cell lines were purchased from the American Type Culture Collection (ATCC, Manassas, VA), Sor the received from the NCI repository:, PANC-1 pancreatic carcinoma (CRL-1469, RRID:CVCL_0480), OVCAR-5 ovarian carcinoma (RRID:CVCL_1628), OVCAR-8 ovarian carcinoma (RRID:CVCL_1629), , MCF-7 breast carcinoma (CRL-12584, RRID:CVCL_0031), MDA-MB-231 breast carcinoma (CRL-12532, RRID:CVCL_0062), NCI-H1876 small cell lung carcinoma (CRL-5902, RRID:CVCL_1503), NCI-H510A small cell lung carcinoma (HTB-184, RRID:CVCL_1565), NCI-H1417 (CRL-5869, RRID:CVCL_1469), and NCI-H196 small cell lung carcinoma (CRL-5823, RRID:CVCL_1509). Dr. Peter Houghton (Greehey Children's Cancer Research Institute, University of Texas Health Science Center, San Antonio, TX) provided Rh-18 rhabdomyosarcoma (RRID:CVCL_1659). Pooled donor human umbilical vein endothelial cells (HUVEC, Lonza, cat. CC-2519) and human mesenchymal stem cells (hMSC, Lonza, cat. PT-2501) were purchased from Lonza (Walkersville, MD).
Cell Culture. […]
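Further: spheroids exposed to agents for 7 days before viability read.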

As for `NC(=O)C(=Cn1cnc(-c2cc(C(F)(F)F)cc(C(F)(F)F)c2)n1)c1cncnc1`, the viability, T/C is 96.8% and 78.4% and 91% (compound 0.000949 µM); 79.9% and 83.7% and 94.9% (compound 0.003 µM); 97.6% and 97.4% and 87% (compound 0.00949 µM); 88.8% and 107% and 101% (compound 0.03 µM); 97.1% and 55.4% and 87.1% (compound 0.0949 µM); 95.9% and 77.4% and 102% (compound 0.3 µM). For the same compound, the 50% inhibitory concentration (IC50) (curve of compound) was above 300 nM.

Take `CCN1CCN(Cc2ccc(Nc3ncc(F)c(-c4cc(F)c5nc(C)n(C(C)C)c5c4)n3)nc2)CC1` + CNC(C)C(=O)NC1CN(S(=O)(=O)c2cccc(S(=O)(=O)N3CCC4CCC(C(=O)NC(c5ccccc5)c5ccccc5)N4C(=O)C(NC(=O)C(C)NC)C3)c2)CCC2CCC(C(=O)NC(c3ccccc3)c3ccccc3)N2C1=O: the IC50 reads like this: (curve of first compound, second compound 0.01 µM) above 1000 nM; (curve of first compound, second compound 0.0316 µM) above 1000 nM; (curve of first compound, second compound 0.1 µM) 339 nM; (curve of first compound, second compound 0.316 µM) 318 nM; (curve of first compound, second compound 1 µM) 251 nM. In addition, the viability, T/C reads like this: (second compound 0.01 µM, first compound 0.00316 µM) 94.7%; (second compound 0.01 µM, first compound 0.01 µM) 97.4%; (second compound 0.01 µM, first compound 0.0316 µM) 67.4%; (second compound 0.01 µM, first compound 0.1 µM) 73.6%; (second compound 0.01 µM, first compound 0.316 µM) 78.5%; (second compound 0.01 µM, first compound 1 µM) 72.2%. Also, the viability, T/C is, setting by setting: (second compound 0.0316 µM, first compound 0.00316 µM) 87.5%; (second compound 0.0316 µM, first compound 0.01 µM) 88.7%; (second compound 0.0316 µM, first compound 0.0316 µM) 83%; (second compound 0.0316 µM, first compound 0.1 µM) 85.7%; (second compound 0.0316 µM, first compound 0.316 µM) 75.5%; (second compound 0.0316 µM, first compound 1 µM) 56.2%. Moreover, the viability, T/C is, setting by setting: (second compound 0.1 µM, first compound 0.00316 µM) 73.6%; (second compound 0.1 µM, first compound 0.01 µM) 79.3%; (second compound 0.1 µM, first compound 0.0316 µM) 78.8%; (second compound 0.1 µM, first compound 0.1 µM) 65.4%; (second compound 0.1 µM, first compound 0.316 µM) 51.6%; (second compound 0.1 µM, first compound 1 µM) 44%. The viability, T/C by setting is: (second compound 0.316 µM, first compound 0.00316 µM) 84.3%; (second compound 0.316 µM, first compound 0.01 µM) 82.8%; (second compound 0.316 µM, first compound 0.0316 µM) 86.5%; (second compound 0.316 µM, first compound 0.1 µM) 57.8%; (second compound 0.316 µM, first compound 0.316 µM) 56%; (second compound 0.316 µM, first compound 1 µM) 37.6%. For the same compound, the viability, T/C is, setting by setting: (second compound 1 µM, first compound 0.00316 µM) 78.2%; (second compound 1 µM, first compound 0.01 µM) 82.8%; (second compound 1 µM, first compound 0.0316 µM) 82.7%; (second compound 1 µM, first compound 0.1 µM) 56.2%; (second compound 1 µM, first compound 0.316 µM) 51.7%; (second compound 1 µM, first compound 1 µM) 33%.

As a reminder, the viability, T/C is the ratio of treated to control. A word on the IC50: it is the point on the concentration scale where inhibition reaches its midpoint.
